Laboratory results reported in the Kinase Knowledgebase extract (Sharma et al. 2016).

Biological target: MAPK14 (human) (UniProt Q16539)
Assay: Enzyme Assay

Sequence of MAPK14 (human) (Q16539 whole entry, looked up): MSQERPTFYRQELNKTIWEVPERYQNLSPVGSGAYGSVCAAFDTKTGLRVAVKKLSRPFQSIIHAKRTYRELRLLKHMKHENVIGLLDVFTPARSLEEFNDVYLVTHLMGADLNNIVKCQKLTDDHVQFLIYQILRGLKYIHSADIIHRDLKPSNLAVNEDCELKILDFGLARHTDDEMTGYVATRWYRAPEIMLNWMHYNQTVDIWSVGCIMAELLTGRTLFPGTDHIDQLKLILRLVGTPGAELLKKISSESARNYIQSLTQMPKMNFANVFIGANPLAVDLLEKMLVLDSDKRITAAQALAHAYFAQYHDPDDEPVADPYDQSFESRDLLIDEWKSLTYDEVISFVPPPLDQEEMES

SMILES | IC50 [nM]
COCC(=O)Nc1cc(O[C@@H]2CC[C@H](NC(=O)Nc3cc(C(C)(C)C)nn3-c3ccc(C)cc3)c3ccccc32)ccn1 | < 10
CN(C)CCOc1cccc(-n2nc(C(C)(C)C)cc2NC(=O)N[C@H]2CC[C@@H](Oc3ccc4nnc(N5CCCCC56CC6)n4c3)c3ccccc32)c1 | < 10
C[C@@H]1CCC[C@H](C)N1c1nnc2ccc(O[C@@H]3CC[C@H](NC(=O)Nc4cc(C(C)(C)C)nn4-c4cccc(CN5CCN(C)CC5)c4)c4ccccc43)cn12 | < 10
Cc1ccc(-n2nc(C(C)(C)C)cc2NC(=O)N[C@H]2CC[C@@H](Oc3ccc4nnc(CCN5CCCC5)n4c3)c3ccccc32)cc1 | < 10
CN1CCCC[C@H]1c1nnc2ccc(O[C@@H]3CC[C@H](NC(=O)Nc4cc(C(C)(C)C)nn4-c4ccc(CO)cc4)c4ccccc43)cn12 | < 10
C[C@@H]1CCC[C@H](C)N1c1nnc2ccc(O[C@@H]3CC[C@H](NC(=O)Nc4cc(C(C)(C)C)nn4-c4cccc(CN5CCOCC5)c4)c4ccccc43)cn12 | < 10
C[C@H]1CCCCN1c1nnc2ccc(O[C@@H]3CC[C@H](NC(=O)Nc4cc(C(C)(C)C)nn4-c4ccc(CN5CCCC5)cc4)c4ccccc43)cn12 | < 10
Cc1ccc(-n2nc(C(C)(C)C)cc2NC(=O)N[C@H]2CC[C@@H](Oc3ccc4nnc(N5CCN(CCO)CC5)n4c3)c3ccccc32)cc1 | < 10
CN(C)CCOc1cccc(-n2nc(C(C)(C)C)cc2NC(=O)N[C@H]2CC[C@@H](Oc3ccc4nnc(N5CCCCC5)n4c3)c3ccccc32)c1 | < 10
C[C@H]1COCCN1c1nnc2ccc(O[C@@H]3CC[C@H](NC(=O)Nc4cc(C(C)(C)C)nn4CCN4CCOCC4)c4ccccc43)cn12 | < 10
Cc1ccc(-c2nc(C(C)(C)C)[nH]c2NC(=O)N[C@H]2CC[C@@H](Oc3ccc4nnc(N5CCCCC5)n4c3)c3ccccc32)cc1 | < 10
Cc1ccc(-n2nc(C(C)(C)C)cc2NC(=O)N[C@H]2CC[C@@H](Oc3ccc4nnc(N5CC[C@H](O)C5)n4c3)c3ccccc32)cc1 | < 10
COc1c(NC(=O)N[C@H]2CC[C@@H](Oc3ccc4nnc(N5CCCCC5)n4c3)c3ccccc32)cc(C(C)(C)C)cc1NS(C)(=O)=O | < 10
Cc1ccc(-n2nc(C(C)(C)C)cc2NC(=O)N[C@H]2CC[C@@H](Oc3ccc4nnc(N5CCCC5)n4c3)c3ccccc32)cc1 | < 10
Cc1ccc(-n2nc(C(C)(C)C)cc2NC(=O)N[C@H]2CC[C@@H](Oc3ccc4nnc(N5CC[C@@H](O)C5)n4c3)c3ccccc32)cc1 | < 10
CC(C)(C)c1cc(NC(=O)N[C@H]2CC[C@@H](Oc3ccc4nnc(N5CCCCC5)n4c3)c3ccccc32)n(-c2cnn(CCN3CCOCC3)c2)n1 | < 10
C[C@@H]1CCC[C@H](C)N1c1nnc2ccc(O[C@@H]3CC[C@H](NC(=O)Nc4cc(C(C)(C)C)nn4-c4cccc(OCCN(C)C)c4)c4ccccc43)cn12 | < 10
C[C@H]1CCCCN1c1nnc2ccc(O[C@@H]3CC[C@H](NC(=O)Nc4cc(C(C)(C)C)nn4CCN4CCCCC4)c4ccccc43)cn12 | < 10
C[C@H]1CCCCN1c1nnc2ccc(O[C@@H]3CC[C@H](NC(=O)Nc4cc(C(C)(C)C)nn4-c4ccc(CN5CCC(F)CC5)cc4)c4ccccc43)cn12 | < 10
CCN(C)CCc1cccc(-n2nc(C(C)(C)C)cc2NC(=O)N[C@H]2CC[C@@H](Oc3ccc4nnc(N5CCCC[C@@H]5C)n4c3)c3ccccc32)c1 | < 10
Cc1ccc(-n2nc(C(C)(C)C)cc2NC(=O)N[C@H]2CC[C@@H](Oc3ccc4nnc(N(C)CCO)n4c3)c3ccccc32)cc1 | < 10
CC(C)(C)c1cc(NC(=O)N[C@H]2CC[C@@H](Oc3ccc4nnc(N5CCCCC5)n4c3)c3ccccc32)n(-c2cccc(CO)c2)n1 | < 10
C[C@@H]1CCC[C@H](C)N1c1nnc2ccc(O[C@@H]3CC[C@H](NC(=O)Nc4cc(C(C)(C)C)nn4-c4cnn(CCN(C)C)c4)c4ccccc43)cn12 | < 10

SMILES | IC50 [nM]
C[C@@H]1CCC[C@H](C)N1c1nnc2ccc(O[C@@H]3CC[C@H](NC(=O)Nc4cc(C(C)(C)C)nn4-c4cnn(CCN5CCOCC5)c4)c4ccccc43)cn12 | < 10
C[C@H]1CCCCN1c1nnc2ccc(O[C@@H]3CC[C@H](NC(=O)Nc4cc(C(C)(C)C)nn4-c4cccc(CCN5CCCN(C)CC5)c4)c4ccccc43)cn12 | < 10
Cc1ccc(-n2nc(C(C)(C)CO)cc2NC(=O)N[C@H]2CC[C@@H](Oc3ccc4nnc(N5CCCCC5)n4c3)c3ccccc32)cc1 | < 10
Cc1ccc(-n2nc(C(C)(C)C)cc2NC(=O)N[C@H]2CC[C@@H](Oc3ccc4nnc(N5CCCC[C@H]5C)n4c3)c3ccccc32)cc1 | < 10
COCCN(C)Cc1cccc(-n2nc(C(C)(C)C)cc2NC(=O)N[C@H]2CC[C@@H](Oc3ccc4nnc(N5CCCC[C@@H]5C)n4c3)c3ccccc32)c1 | < 10
Cc1ccc(-n2nc(C(C)(C)C)cc2NC(=O)N[C@H]2CC[C@@H](Oc3ccc4nnc(C5(N(C)C)CCCC5)n4c3)c3ccccc32)cc1 | < 10
Cc1ccc(-n2nc(C(C)(C)C)cc2NC(=O)N[C@H]2CC[C@@H](Oc3ccc4nnc(-c5ccc(CN6CCOCC6)cc5)n4c3)c3ccccc32)cc1 | < 10
C[C@H]1CCCCN1c1nnc2ccc(O[C@@H]3CC[C@H](NC(=O)Nc4cc(C(C)(C)C)nn4-c4cccc(OCCN5CCCCC5)c4)c4ccccc43)cn12 | < 10
CN(C)CCn1cc(-n2nc(C(C)(C)C)cc2NC(=O)N[C@H]2CC[C@@H](Oc3ccc4nnc(N5CCCCC5)n4c3)c3ccccc32)cn1 | < 10
Cc1ccc(-n2nc(C(C)(C)C)cc2NC(=O)N[C@H]2CC[C@@H](Oc3cc(C)c4nnc([C@@H]5CCCN5C)n4c3)c3ccccc32)cc1 | < 10
Cc1ccc(-n2nc(C(C)(C)C)cc2NC(=O)N[C@H]2CC[C@@H](Oc3ccc4nnc(N5CCC[C@H](CO)C5)n4c3)c3ccccc32)cc1 | < 10
CC(C)(C)c1cc(NC(=O)N[C@H]2CC[C@@H](Oc3ccc4nnc(N5CCCCC5)n4c3)c3ccccc32)n(-c2ccc(CO)cc2)n1 | < 10
C[C@H]1CCCCN1c1nnc2ccc(O[C@@H]3CC[C@H](NC(=O)Nc4cc(C(C)(C)C)nn4-c4cccc(OCCN5CCN(C)CC5)c4)c4ccccc43)cn12 | < 10
CCN(CC)CCOc1cccc(-n2nc(C(C)(C)C)cc2NC(=O)N[C@H]2CC[C@@H](Oc3ccc4nnc(N5CCCC[C@@H]5C)n4c3)c3ccccc32)c1 | < 10
Cc1ccc(-n2nc(C(C)(C)C)cc2NC(=O)N[C@H]2CC[C@@H](Oc3ccc4nnc(N5CCCCC5)n4c3)c3ccccc32)cn1 | < 10
Cc1ccc(-n2nc(C(C)(C)C)cc2NC(=O)N[C@H]2CC[C@@H](Oc3ccc4nnc([C@@H]5CCCN5)n4c3)c3ccccc32)cc1 | < 10
Cc1ccc(-n2nc(C(C)(C)C)cc2NC(=O)N[C@H]2CC[C@@H](Oc3ccc4nnc(N5CCCCC5)n4c3)c3ccccc32)cc1 | < 10
Cc1ccc(-n2nc(C(C)(C)C)cc2NC(=O)N[C@H]2CC[C@@H](Oc3ccc4nnc(CC5CCN(CC(F)F)CC5)n4c3)c3ccccc32)cc1 | < 10
C[C@@H]1CCC[C@H](C)N1c1nnc2ccc(O[C@@H]3CC[C@H](NC(=O)Nc4cc(C(C)(C)C)nn4CCO)c4ccccc43)cn12 | < 10
C[C@H]1CCCCN1c1nnc2ccc(O[C@@H]3CC[C@H](NC(=O)Nc4cc(C(C)(C)C)nn4-c4cccc(CCN5CCCCC5)c4)c4ccccc43)cn12 | < 10
Cc1ccc(-n2nc(C(C)(C)C)cc2NC(=O)N[C@H]2CC[C@@H](Oc3ccc4nnc([C@@H]5CC(C)(C)CN5C)n4c3)c3ccccc32)cc1 | < 10
CC(C)(C)c1cc(NC(=O)N[C@H]2CC[C@@H](Oc3ccc4nnc(N5CCCCC5)n4c3)c3ccccc32)n(-c2ccc(C#N)cc2)n1 | < 10
